In patent publication US9796755B2, “Methods of treating depression and other related diseases” (Northwestern University, priority 2009, dated 2017):
Where a SMILES comes first, the peptide text is derived from it.

Key:
Type in all cases: in vivo, rat
rats [1] = assay: Porsolt test (Forced Swim Test), systemic dosing; details: for effect on floating times in the Porsolt test: Sprague Dawley rats, 20-60 min post dosing
Description: For the evaluation of the antidepressant actions of GLYX-13, the effect of GLYX-13 in the Porsolt test of depression was examined in rats. Porsolt testing is the most commonly used test for assessment of depression in animal model, Porsolt testing, also known as Forced Swim Test, is based on a behavioral trait that is sensitive to changes in affective state. During this test, the animal is placed in a tank (18 cm diameter×45 cm height) filled to 30 cm with 22-23° C. water. After placing the animal in the tank, the amount of time for which the rat is immobile when it stops struggling is measured. Porsolt test is based on the fact that antidepressants increase the latency to immobility and decrease the time for which the rat is immobile. […] The interpretation of the Porsolt test is that the antidepressants reinstate active coping mechanisms and decrease the passive immobility evoked by stress.
In order to evaluate the effectiveness of GLYX-13 as antidepressant, three month old FBNF1 rats were separated into two groups of 9 animals. The first group of rats was intravenously injected with 10 mg/kg GLYX-13 and the second group of animals was intravenously injected with PBS vehicle (1 ml/kg) in a blind manner via chronic subdural femoral vein access ports. Both groups of animals were injected 10 to 15 minutes before the start of testing.
For Porsolt testing, animals were given a 15 minute pre-test habituation in the tank to induce learned helplessness on day one. Following this, on the subsequent day, the animals were injected with GLYX-13 or vehicle 10-15 minutes before being placed into the tank for a 5 minute test session. After placing the animals in the tank, the amount of time for which each animal is immobile when it stops struggling (Mean Immobility Time) was measured. Decrease in Mean Immobility Time is a measure of the effectiveness of the antidepressant.
A second experiment was performed in the same manner as Example 1, except that 2-3 month Sprague-Dawley rats were used, and treated with either intravenous (1, 3, 10, 32 mg/kg), subcutaneous (1, 3, 10, 32, 56, 100 mg/kg) injections of GLYX-13 or saline vehicle (1 mg/ml) 15 (i,v.) or 20 (s.c.) min before the start of the final 5 min test session. Ketamine (10 mg/kg i.p.) was given 60 min befbre the start of testing (Garcia et al., (2008) Prog Neuropsychopharmacol Biol Psychiatry, 32, 140-144).
To determine whether the antidepressant effect of GLYX-13 was specific to the sequence of the GLXY-13 peptide, mean time (sec) spent floating in the Porsolt test was determined in groups of 12 three-month old Sprague Dawley rats administered with GLYX-13 (TPPT-NH2 (SEQ ID NO: 13); 3 mg/kg , i.v. tail vein), a scrambled peptide (PTPT-NH3(SEQ ID NO: 19); 3 mg/kg i.v. tail vein), or 0.9% saline vehicle (1 ml/kg, i.v. tail vein). Administration occurred 60 min before the 5 min testing session. Animals received a 15 min training swim session one day before dosing.
To evaluate whether the anti-depressive and anxiolytic effects of GLYX-13 would persist beyond a few hours, rats were tested in the Porsolt test and the Open Field test, described above. Groups of 10-11 three-month old Sprague-Dawley rats were pretreated with GLYX-13 (3 mg/kg i.v.), ketamine (10 mg/kg i.v.) or saline vehicle injection (1 mg/ml i.v. tail vein) 96 hrs before the start of testing. Animals received a single 15 min. training swim session one day before dosing. Animals were tested 96 hrs post dosing in the Porsolt test without any testing during the intervening period. Open field testing was conducted without pre-habituation 1 day after Porsolt testing (i.e. 120 hrs post dosing). Mean(±SEM) time (sec.) spent floating in the Porsolt test, time spent in the center compartment (sec.), and line crosses in the open field test were determined.
The Porsolt test adapted for use in rats was performed as above. […]

rats [2] = assay: Porsolt test after microinjection into medial prefrontal cortex or motor cortex
Description: To determine whether GLYX-13 acts in an area of the brain that is clinically relevant for depression, GLYX-13 was administered to either the medial prefrontal cortex (MPFC), which is associated with mood and depression, or to the motor cortex (FIG. 4). Mean time spent immobile in the Porsolt test was determined for groups of 10 three-month old male Fisher Brown Norway FI (FBNFI) rats pretreated with a single injection of GLYX-13 (1, 10 ug/side) or a single saline vehicle injection (0.5 ul/1 min) bilaterally into the medial prefrontal cortex or motor cortex (dorsal control) in animals with surgically implanted chronic indwelling cannulae aimed at the MPFC. […] Animals received a single 15 min training swim session one day before dosing.
The Porsolt test adapted for use in rats was performed as above. Animals were placed in a 46 cm tall×20 cm in diameter clear plastic tube filled to 30 cm with tap water (23±1° C.) for 15 min on the first day (habituation) and […] on the subsequent test day.
Bilateral 22-gauge guide cannulae (Plastic Products, USA) were stereotaxically implanted into the infralimbic/prelimbic cortex (+2.7 mm anterior,±1.2 mm lateral, 3.1 mm. ventral to bregma; cannulae angled 12° away from the midline) or dorsal control primary secondary motor cortex. (+2.7 mm anterior,±1.2 mm lateral, 1.0 mm ventral to bregma; cannulae angled 12° away from the midline). Animals were allowed 1 week to recover from surgery before the start of testing. After the completion of behavioral testing, histology was conducted for cannulae tip location. For medial prefrontal cannulae, all tips were located within the infralimbic or prelimbic cortex 2.2-3.2 mm anterior to bregma. For motor cortex cannulae, all tips were located, within the primary or secondary motor cortex 2.2-3.2 mm anterior to bregma.

rats [3] = assay: Prepulse inhibition; details: Sprague-Dawley rats; GLYX-13 10 mg/kg IV tested 15 min post injection; ketamine 10 mg/kg IP tested immediately
Description: Animals were given intravenous injections of GLYX-13 (10 mg/kg) or saline via chronic indwelling femoral vein cannulae and tested 15 min post injection, or intraperitoneal ketamine (10 mg/kg) or saline vehicle (1 mL/kg IV or IP respectively) and tested immediately post injection for prepulse inhibition.

C[C@@H](O)[C@H](N)C(=O)N1CCC[C@H]1C(=O)N1CCC[C@H]1C(=O)N[C@H](C(N)=O)[C@@H](C)O [GLYX-13, L-threonyl-L-prolyl-L-prolyl-L-threonine amide] (H-TPPT-NH2)
activity in the Porsolt test (rats [1]; 10 mg/kg SC): active | effect on floating times in the Porsolt test (rats [1]; 3-10 mg/kg IV): significantly (P<0.05) reduced floating times | effect on floating times in the Porsolt test (rats [1]; 10-30 mg/kg SC): significantly (P<0.05) reduced floating times | onset of action (rats [1]; single dose, rats): within minutes | effect on floating time in the Porsolt test (rats [2]; MPFC injection 1 μg/side, two weeks post dosing, independent group): Reduction in floating time was still apparent | effect on floating time in the Porsolt test (rats [2]; MPFC injections, 1 and 10 μg/side, 20 min post dosing): reduced floating time | reduction in floating compared to saline control or GLYX-13 injected into motor cortex (rats [2]; injected into MPFC, FBNF1 rats, 20 min post injection, Mean±SEM): 50±5% | prepulse inhibition, an indicator of dissociative effects (rats [3]): did not exhibit either of these effects
